Assay results: ChEMBL document CHEMBL3885881, “DrugMatrix”

Species on record: Rattus norvegicus
Assay: DrugMatrix - Regimen: Daily Repeat
Assay type: toxicity, organism-based, Sprague-Dawley
Set-up: regimen Daily Repeat, gender Male, age 6-8 weeks
Settings: in vivo, ip, 1 mg/kg, route intraperitoneal, dose level High, vehicle 100 % SALINE; for ABSOLUTE BASOPHIL / ABSOLUTE EOSINOPHIL / ABSOLUTE LYMPHOCYTE / ABSOLUTE MONOCYTE / ABSOLUTE SEGMENTED NEUTROPHIL / BASOPHIL / EOSINOPHIL / ERYTHROCYTE COUNT / HEMATOCRIT / HEMOGLOBIN / LEUKOCYTE COUNT / LYMPHOCYTE / MEAN CORPUSCULAR HEMOGLOBIN / MEAN CORPUSCULAR HEMOGLOBIN CONCENTRATION / MEAN CORPUSCULAR VOLUME / MONOCYTE / NEUTROPHIL / NUCLEATED RED BLOOD CELLS / PLATELET COUNT: tissue Blood; for ALANINE AMINOTRANSFERASE / ALKALINE PHOSPHATASE / ASPARTATE AMINOTRANSFERASE / BLOOD UREA NITROGEN / CARBON DIOXIDE / CHLORIDE / CHOLESTEROL / CREATININE / GLUCOSE / LACTATE DEHYDROGENASE / LIPASE / PHOSPHORUS / POTASSIUM / SODIUM / TOTAL BILIRUBIN / TOTAL PROTEIN / URIC ACID: tissue Plasma

CC[C@H]1CN2CCc3cc(OC)c(OC)cc3[C@@H]2C[C@@H]1C[C@H]1NCCc2cc(OC)c(OC)cc21 [EMETINE]
ABSOLUTE BASOPHIL (72 h, time 3 day): 0 CELLS/uL | ABSOLUTE EOSINOPHIL (72 h, time 3 day): 235.33 CELLS/uL | ABSOLUTE LYMPHOCYTE (72 h, time 3 day): 9173.33 CELLS/uL | ABSOLUTE MONOCYTE (72 h, time 3 day): 141.33 CELLS/uL | ABSOLUTE SEGMENTED NEUTROPHIL (72 h, time 3 day): 916.67 CELLS/uL | BASOPHIL (72 h, time 3 day): 0% | EOSINOPHIL (72 h, time 3 day): 2.33% | ERYTHROCYTE COUNT (72 h, time 3 day): 6.53 x10E6/uL | HEMATOCRIT (72 h, time 3 day): 38.67% | HEMOGLOBIN (72 h, time 3 day): 13.97 G/DL | LEUKOCYTE COUNT (72 h, time 3 day): 10.47 x10E3/uL | LYMPHOCYTE (72 h, time 3 day): 88% | MEAN CORPUSCULAR HEMOGLOBIN (72 h, time 3 day): 21.37 pg | MEAN CORPUSCULAR HEMOGLOBIN CONCENTRATION (72 h, time 3 day): 36.1 G/DL | MEAN CORPUSCULAR VOLUME (72 h, time 3 day): 59.2 fL | MONOCYTE (72 h, time 3 day): 1.33% | NEUTROPHIL (72 h, time 3 day): 8.33% | NUCLEATED RED BLOOD CELLS (72 h, time 3 day): 0 /100WBC | PLATELET COUNT (72 h, time 3 day): 1026.33 x10E3/uL | ALANINE AMINOTRANSFERASE (72 h, time 3 day): 66.33 u/L | ALKALINE PHOSPHATASE (72 h, time 3 day): 365 u/L | ASPARTATE AMINOTRANSFERASE (72 h, time 3 day): 82.33 u/L | BLOOD UREA NITROGEN (72 h, time 3 day): 17.67 mg/dL | CARBON DIOXIDE (72 h, time 3 day): 34.67 mmol/L | CHLORIDE (72 h, time 3 day): 100.33 MEQ/L | CHOLESTEROL (72 h, time 3 day): 63 mg/dL | CREATININE (72 h, time 3 day): 0.22 mg/dL | GLUCOSE (72 h, time 3 day): 180.33 mg/dL | LACTATE DEHYDROGENASE (72 h, time 3 day): 120.33 u/L | LIPASE (72 h, time 3 day): 9 u/L | PHOSPHORUS (72 h, time 3 day): 11.83 mg/dL | POTASSIUM (72 h, time 3 day): 6.48 MEQ/L | SODIUM (72 h, time 3 day): 146.33 MEQ/L | TOTAL BILIRUBIN (72 h, time 3 day): 0.2 mg/dL | TOTAL PROTEIN (72 h, time 3 day): 6.27 G/DL | URIC ACID (72 h, time 3 day): 1.73 mg/dL | ABSOLUTE BASOPHIL (120 h, time 5 day): 0 CELLS/uL | ABSOLUTE EOSINOPHIL (120 h, time 5 day): 107.33 CELLS/uL | ABSOLUTE LYMPHOCYTE (120 h, time 5 day): 9674.67 CELLS/uL | ABSOLUTE MONOCYTE (120 h, time 5 day): 240.33 CELLS/uL | ABSOLUTE SEGMENTED NEUTROPHIL (120 h, time 5 day): 1811 CELLS/uL | BASOPHIL (120 h, time 5 day): 0% | EOSINOPHIL (120 h, time 5 day): 1% | ERYTHROCYTE COUNT (120 h, time 5 day): 6.23 x10E6/uL | HEMATOCRIT (120 h, time 5 day): 37.3% | HEMOGLOBIN (120 h, time 5 day): 13.67 G/DL | LEUKOCYTE COUNT (120 h, time 5 day): 11.83 x10E3/uL | LYMPHOCYTE (120 h, time 5 day): 82.67% | MEAN CORPUSCULAR HEMOGLOBIN (120 h, time 5 day): 21.93 pg | MEAN CORPUSCULAR HEMOGLOBIN CONCENTRATION (120 h, time 5 day): 36.67 G/DL | MEAN CORPUSCULAR VOLUME (120 h, time 5 day): 59.8 fL | MONOCYTE (120 h, time 5 day): 2% | NEUTROPHIL (120 h, time 5 day): 14.33% | NUCLEATED RED BLOOD CELLS (120 h, time 5 day): 0 /100WBC | PLATELET COUNT (120 h, time 5 day): 1167.33 x10E3/uL | ALANINE AMINOTRANSFERASE (120 h, time 5 day): 57 u/L | ALKALINE PHOSPHATASE (120 h, time 5 day): 325 u/L | ASPARTATE AMINOTRANSFERASE (120 h, time 5 day): 102.33 u/L | BLOOD UREA NITROGEN (120 h, time 5 day): 16.67 mg/dL | CARBON DIOXIDE (120 h, time 5 day): 28.67 mmol/L | CHLORIDE (120 h, time 5 day): 100.67 MEQ/L | CHOLESTEROL (120 h, time 5 day): 52.67 mg/dL | CREATININE (120 h, time 5 day): 0.23 mg/dL | GLUCOSE (120 h, time 5 day): 272.67 mg/dL | LACTATE DEHYDROGENASE (120 h, time 5 day): 312 u/L | LIPASE (120 h, time 5 day): 8.67 u/L | PHOSPHORUS (120 h, time 5 day): 14.97 mg/dL | POTASSIUM (120 h, time 5 day): 5.87 MEQ/L | SODIUM (120 h, time 5 day): 146.87 MEQ/L | TOTAL BILIRUBIN (120 h, time 5 day): 0.1 mg/dL | TOTAL PROTEIN (120 h, time 5 day): 5.9 G/DL | URIC ACID (120 h, time 5 day): 2.8 mg/dL | ABSOLUTE BASOPHIL ([…], time 14 day): 0 CELLS/uL | ABSOLUTE EOSINOPHIL ([…], time 14 day): 124.6 CELLS/uL | ABSOLUTE LYMPHOCYTE ([…], time 14 day): 16602.4 CELLS/uL | ABSOLUTE MONOCYTE ([…], time 14 day): 725.4 CELLS/uL | ABSOLUTE SEGMENTED NEUTROPHIL ([…], time 14 day): 1987.6 CELLS/uL | BASOPHIL ([…], time 14 day): 0% | EOSINOPHIL ([…], time 14 day): 0.6% | ERYTHROCYTE COUNT ([…], time 14 day): 6.66 x10E6/uL | HEMATOCRIT ([…], time 14 day): 38.76% | HEMOGLOBIN ([…], time 14 day): 14.18 G/DL | LEUKOCYTE COUNT ([…], time 14 day): 19.44 x10E3/uL | LYMPHOCYTE ([…], time 14 day): 85.6% | MEAN CORPUSCULAR HEMOGLOBIN ([…], time 14 day): 21.32 pg | MEAN CORPUSCULAR HEMOGLOBIN CONCENTRATION ([…], time 14 day): 36.58 G/DL | MEAN CORPUSCULAR VOLUME ([…], time 14 day): 58.24 fL | MONOCYTE ([…], time 14 day): 3.6% | NEUTROPHIL ([…], time 14 day): 10.2% | NUCLEATED RED BLOOD CELLS ([…], time 14 day): 0 /100WBC | PLATELET COUNT ([…], time 14 day): 1306.2 x10E3/uL | ALANINE AMINOTRANSFERASE ([…], time 14 day): 45.2 u/L | ALKALINE PHOSPHATASE ([…], time 14 day): 253.2 u/L | ASPARTATE AMINOTRANSFERASE ([…], time 14 day): 99 u/L | BLOOD UREA NITROGEN ([…], time 14 day): 13.6 mg/dL | CARBON DIOXIDE ([…], time 14 day): 31.8 mmol/L | CHLORIDE ([…], time 14 day): 101 MEQ/L | CHOLESTEROL ([…], time 14 day): 62.2 mg/dL | CREATININE ([…], time 14 day): 0.14 mg/dL | GLUCOSE ([…], time 14 day): 143.2 mg/dL | LACTATE DEHYDROGENASE ([…], time 14 day): 172.6 u/L | LIPASE ([…], time 14 day): 8.8 u/L | PHOSPHORUS ([…], time 14 day): 11.54 mg/dL | POTASSIUM ([…], time 14 day): 6.76 MEQ/L | SODIUM ([…], time 14 day): 145.5 MEQ/L | TOTAL BILIRUBIN ([…], time 14 day): 0.2 mg/dL | TOTAL PROTEIN ([…], time 14 day): 5.82 G/DL | URIC ACID ([…], time 14 day): 1.66 mg/dL
